These results are taken from paper PMC8372822, “A Concise Synthetic Strategy Towards the Novel Calcium-dependent Lipopeptide Antibiotic, Malacidin A and Analogues” (Frontiers in Chemistry, 2021).

Like-named read-outs stand apart in the source and are kept apart here. Positions of bridges follow the written chain, without caps; N, C: chain ends. Non-standard residues stand in square brackets, D forms with d. Residues, ends and D or L forms follow the SMILES beside them. *: point of attachment. Benzoyl(4-Ph) = O=C(c1ccc(-c2ccccc2)cc1)*; Decanoyl = CCCCCCCCCC(=O)*; Dap = NC[C@H](N)C(=O)O

In series [1] the test system is Staphylococcus aureus (ATCC 29213). Format: cell-based. The method, then: MIC assays were performed in accordance with the CLSI recommended protocol^17 with minor adjustments. Briefly, Staphylococcus aureus (ATCC 29213) was grown at 37 °C with shaking (200 rpm) in Mueller Hinton (MH) broth supplemented with either 1.5 mM (near the concentration commonly employed for daptomycin testing [1.25 mM]) or 15 mM CaCl2 (in accordance with the reported testing of malacidin by Hover et al.^1) from an autoclaved stock solution of CaCl2. The respective Ca^2+ adjusted media was used for all further compound and culture dilutions. A two-fold dilution series of the test compounds was prepared in triplicate in polypropylene 96-well plates. Cultures of bacteria grown for 8 h were diluted accordingly in fresh media before adding 50 µL of inoculum to each well of the MIC plate, to achieve a final volume of 100 µL with a uniform CFU/ml of ~5 x10^5 in each well. A growth control (untreated) and sterility control (non-inoculated) well were included for each test compound replicate. Plates were incubated at 37 °C with shaking for 18 h before determining the MIC by visual inspection. MIC values were determined as the lowest concentration at which no growth was observed consistently across all three biological replicates of the assay and within triplicates of each test compound.
Table S2. MIC values of diastereomer 1a at different CaCl2 concentrations.

The nature of series [2]: Ca2+ binding capability by 1H NMR in the presence of CaCl2. Conditions: 1a 5.6 mM in D2O, CaCl2 at 1.5 mM and 15 mM, 500 MHz, 298 K. As for the experimental part: Despite these differences, it was observed that the lipid sp^2 proton signals closely matched that of the natural product and no peaks arising from cis-trans isomerization were observed, indicating the tolerance of acid-sensitive lipid 25 to the optimized TFA side chain deprotection conditions and HPLC purification protocols.
[picture] Figure S16. Overlay of ^1H NMR spectra of synthetic 1a (5.6 mM) recorded at 500 MHz, 298 K in D2O spiked with Et3N (1.88 mM) and CaCl2 of varying concentrations: 0 mM CaCl2 (bottom), 1.5 mM CaCl2 (middle), 15 mM CaCl2 (top).

Series [3] deals with Staphylococcus aureus ATCC 6538. The series is described as follows: microbe, parasite or virus in culture. It counts as cell-based. Conditions: for MIC: S. aureus ATCC 6538, CAMHB, in presence of 50 mg L^-1 of CaCl2, 37 °C, 18 to 24 h, biological triplicate, maximum concentration 128 µg mL^-1. The method, then: Antimicrobial susceptibility testing was performed in biological triplicate by determining the minimum inhibitory concentrations (MIC) of the six malacidin analogues and the control antibiotics, penicillin G and daptomycin. Malacidin analogues 31, 36, 39, and 40 were prepared as 10 mg mL^-1 stock solutions in filter sterilised MilliQ water. Compounds 37, and 38 were prepared as 5 mg mL^-1 stock solutions in filter sterilised MilliQ water. Malacidin analogues were tested at a maximum concentration of 128 µg mL^-1. Bacterial inoculums of Staphylococcus aureus ATCC 6538 were prepared by diluting an overnight culture to a final optical density 600 nm (OD600) of 0.003 in cation adjusted Mueller Hinton broth (CAMH) to yield 5 × 10^5 CFU mL^-1 (final) in all assays. MIC assays were performed in 96-well microtiter plates in a total volume of 100 µL, and compounds were serially diluted across the plate in 2-fold dilutions. The MIC was reported as the lowest concentration of the test compound for which no growth occurred after incubation at 37 °C for 18 to 24 h. For all MIC testing CAMHB was supplemented with calcium (50 mg L^-1 final) as per the CLSI guidelines for daptomycin^17
Table S3. MIC values of simplified analogues 31, 36-40 in presence of 50 mg L^-1 of CaCl2.^aTesting was additionally performed in the absence of CaCl2 and no activity for any of the malacidin analogues was observed against S. aureus.

Series [4] relates to methicillin-resistant Staphylococcus aureus (MRSA), MRSA USA300. Conditions: ref Hover et al., 2018, cited from earlier work. The text has this: In 2018, Brady et al. reported the isolation of malacidin A (1) as part of an extensive metagenomic mining study of bacterial DNA obtained from soil samples in search of novel bioactive natural products ([Owen et al., 2013]; [Hover et al., 2018]). […] Malacidin ... || FIGURE 1 Structure of malacidin A (1); non-canonical amino acids and the lipid tail are highlighted in purple; the undefined stereochemistry of β-carbon centers is indicated with an asterisk; the calcium-binding region residues are specified in red; the macrolactam bond is highlighted with blue shading. The stereochemistry and MIC values of the isolated malacidin A (1) ([Hover et al., 2018]) and synthesized diastereomers [this work 1a, the Li group 1b–1e ([Sun et al., 2020])] are shown above; X in 1 represents undefined stereochemistry. TEXT PRINTED IN THE PICTURE: Malacidin A (1): MIC (μg mL^ ...

The conditions of series [5]: cited from earlier work. From the text: (§1) In 2018, Brady et al. reported the isolation of malacidin A (1) as part of an extensive metagenomic mining study of bacterial DNA obtained from soil samples in search of novel bioactive natural products ([Owen et al., 2013]; [Hover et al., 2018]). […] Malacidin ...
The test system of the next series is S. aureus. Conditions: after repeated exposure to S. aureus; ref Hover et al., 2018; cited from earlier work.
From the text: as §1

For series [6], the system named is vancomycin-resistant Enterococcus faecium (VRE). To be noted: ref Hover et al., 2018; cited from earlier work.
From the text: as §1

The conditions of series [7]: ref Hover et al., 2018; cited from earlier work. From the text: Evaluation of the antibacterial activity of the synthesized analogues 1a, 31 and 36–40 was then undertaken.

Turning to `CC(C)CC/C=C\C=C\C(=O)N[C@H](C(=O)N[C@@H]1C(=O)N[C@H](C(C)C)C(=O)N[C@@H](CCCCN)C(=O)N[C@@H]([C@H](O)C(=O)O)C(=O)N[C@@H](CC(=O)O)C(=O)NCC(=O)N[C@H]([C@@H](C)C(=O)O)C(=O)N[C@@H](C(C)C)C(=O)N2C[C@H](C)C[C@H]2C(=O)N[C@H]1C)[C@H](C)C(=O)O` [1a], the “activity toward S. aureus” value in series [1] (15 mM CaCl2 (Supplementary Table S2)) and in series [1] (media supplemented with 1.25–1.5 mM CaCl2 (Supplementary Table S2)) was “no activity” throughout. The same molecule registered an MIC in series [1] (S.aureus strain: ATCC 29213, Figure 1, this work) of more than 64 mg/L. The “interaction with Ca^2+ ions (signal shifts or line broadening in 1H NMR)” value in series [2] is listed as “fails to interact with Ca^2+ ions”.
In the case of `CC1(C)S[C@@H]2[C@H](NC(=O)Cc3ccccc3)C(=O)N2[C@H]1C(=O)O` [Penicillin G, penicillin G], in series [3] (Staphylococcus aureus, ATCC6538, read-out: MIC), the MIC stood at 0.0312 mg/L.
As to `CCCCCCCCCC(=O)N[C@@H](CC(=O)O)C(=O)N[C@H]1CNC(=O)[C@@H]2CCCN2C(=O)[C@H](C(C)C)NC(=O)[C@@H](CC(=O)O)NC(=O)CNC(=O)[C@H](CC(=O)O)NC(=O)[C@H](CC(=O)O)NC(=O)[C@H](CCCCN)NC(=O)[C@@H](C(C)C)NC1=O` [compound 31] (Decanoyl-D[Dap][dV]KDDG[dD]VP; lactam 2-C), the “activity toward S. aureus” value in series [3] (media supplemented with 1.25–1.5 mM CaCl2 (Supplementary Table S3)) was “no activity”.
Turning to `CC(C)[C@@H]1NC(=O)[C@@H](CC(=O)O)NC(=O)CNC(=O)[C@H](CC(=O)O)NC(=O)[C@H](CC(=O)O)NC(=O)[C@H](CCCCN)NC(=O)[C@@H](C(C)C)NC(=O)[C@@H](NC(=O)[C@H](CC(=O)O)NC(=O)c2ccc(-c3ccccc3)cc2)CNC(=O)[C@@H]2CCCN2C1=O` [compound 40] ({Benzoyl(4-Ph)}-D[Dap][dV]KDDG[dD]VP; lactam 2-C), the MIC in series [3] is >128 >128 µg/mL.
Turning to malacidin A, the MIC is 0.2 to 0.8 mg/L in series [4] (MRSA); 0.2 to 0.8 mg/L in series [4] (S.aureus strain: MRSA USA300, Figure 1); 0.8 to 2.0 mg/L in series [6]. The cytotoxicity entry in series [5] is on record as “non-cytotoxic”. Also, the molecular target bound entry in series [5] (preliminary mechanistic studies, ref Hover et al., 2018) is recorded as “binding to lipid II”. Further, the induction of resistance result in the series with S. aureus is reported as “did not induce resistance”. In series [7], the “CaCl2 concentration of maximum activity” value was 15 mM.
